Assay results: patent publication US4025533A, “5-Bromo-5-nitro-2-alkylsubstituted-1,3-dioxane” (Eli Lilly and Company, priority 1976, dated 1977)
Values after ≈ are worked out from the molar mass of the structure shown.

Legend:
Aspergillus niger [1] = test: in vitro agar plate determination (Table VII); format: cell-based; conditions: agar plates at 10, 25 and 50 mcg. per ml., 24 hours, read-out: Minimum Inhibitory Concentration
Procedure: (§1) The antimicrobial activities of […] (Compound G) were determined concurrently with 5-bromo-2-methyl-5-nitro-1,3-dioxane (Compound C) and 5-bromo-5-nitro-1,3-dioxane (Compound B) against the same six organisms shown in Table II. […] The tests were in vitro determinations utilizing agar plates containing the active compound at 10, 25 and 50 mcg. per ml. of agar. The organisms, at concentrations of 10^6 organisms per milliliter, were streaked on the solidified agar. The plates were incubated for 24 hours and the presence or absence of growth noted. The minimum inhibitory concentration (MIC) was determined as the lowest active compound concentration in the agar where no growth occurred.

Candida albicans [2] = test: in vitro agar plate determination (Table VII); format: cell-based; conditions: agar plates at 10, 25 and 50 mcg. per ml., 24 hours, read-out: Minimum Inhibitory Concentration
Procedure: as §1

Escherichia coli [3] = test: in vitro agar plate determination (Table VII); format: cell-based; conditions: agar plates at 10, 25 and 50 mcg. per ml., 24 hours, read-out: Minimum Inhibitory Concentration
Procedure: as §1

Pseudomonas aeruginosa [4] = test: in vitro agar plate determination (Table VII); format: cell-based; conditions: agar plates at 10, 25 and 50 mcg. per ml., 24 hours, read-out: Minimum Inhibitory Concentration
Procedure: as §1

Staphylococcus aureus [5] = test: in vitro agar plate determination (Table VII); format: cell-based; conditions: agar plates at 10, 25 and 50 mcg. per ml., 24 hours, read-out: Minimum Inhibitory Concentration
Procedure: as §1

Streptococcus faecalis [6] = test: in vitro agar plate determination (Table VII); format: cell-based; conditions: Enterococcus faecalis; agar plates at 10, 25 and 50 mcg. per ml., 24 hours; read-out: Minimum Inhibitory Concentration
Procedure: as §1

Propionibacterium acnes = test: conventional tube dilution test, anaerobic; format: cell-based; conditions: Cutibacterium acnes, medium pH 6.9, read-out: minimum inhibitory concentration
Procedure: For example, 5-bromo-2-methyl-5-nitro-1,3-dioxane (Compound C) was tested against Propionibacterium acnes (formerly called Corynebacterium acnes) in a conventional tube dilution test. A simultaneous test was run utilizing 2-bromo-2-nitropropane,1,3-diol (Compound A) and 5-bromo-5-nitro-1,3-dioxane (Compound B) as the antimicrobials.
The test against Propionibacterium acnes were run anaerobically in the following medium:
(§2) Distilled water q.s. -- 1000 ml
The pH of the medium was 6.9

Escherichia coli [7] = test: conventional tube dilution test (Table I); format: cell-based; conditions: 48 h, antibiotic Number 3 medium, two days at 37° C., read-out: Minimum Inhibitory Concentration
Procedure: (§3) The in vitro antimicrobial activities of Compounds A, B and C, 5-bromo-2-ethyl-5-nitro-1,3-dioxane (Compound D), 5-bromo-5-nitro-2-n-propyl-1,3-dioxane (Compound E), and 5-bromo-2-isopropyl-5-nitro-1,3-dioxane (Compound F) were determined concurrently against Pseudomonas aeruginosa, Staphylococcus aureus, Escherichia coli, and Streptococcus faecalis in a conventional tube dilution test. The medium used was antibiotic Number 3 [CFR 436.102(3)] and the concentration of organisms was 10^4 organisms per ml of medium, with each tube being inoculated with 0.1 ml of inoculum. The figures shown in Table I are the lowest concentrations in mcg of active compound/ml of medium where no growth occurred in the medium after two days' incubation at 37° C.

Pseudomonas aeruginosa [8] = test: conventional tube dilution test (Table I); format: cell-based; conditions: 48 h, antibiotic Number 3 medium, two days at 37° C., read-out: Minimum Inhibitory Concentration
Procedure: as §3

Staphylococcus aureus [9] = test: conventional tube dilution test (Table I); format: cell-based; conditions: 48 h, antibiotic Number 3 medium, two days at 37° C., read-out: Minimum Inhibitory Concentration
Procedure: as §3

Streptococcus faecalis [10] = test: conventional tube dilution test (Table I); format: cell-based; conditions: Enterococcus faecalis, 48 h, antibiotic Number 3 medium, two days at 37° C., read-out: Minimum Inhibitory Concentration
Procedure: as §3

Aspergillus niger [11] = test: agar plate system (Table II); format: cell-based; conditions: antibiotic medium 22, 72 hours at 30° C., read-out: Minimum Inhibitory Concentration
Procedure: (§4) The antimicrobial activities of Compounds A, B, C, D, E and F were also determined in an agar plate system. The compounds were added to melted and cooled (50° C.) agar in twofold concentration increments from 50 mcg per ml of agar to 1.56 mcg per ml of agar. Antibiotic medium 1 [CFR 436.102(1)] was used for testing of Pseudomonas aeruginosa, Staphylococcus aureus, Escherichia coli, and Streptococcus faecalis, but antibiotic medium 22 [CFR 436.102(22)] was used for testing of Candida albicans and Aspergillus niger. Organism suspensions containing 10^6 organisms per ml were used as stock suspensions. Sterile cotton swabs were dipped in the suspensions and then streaked across the solidified agar. The figures shown in Table II were the lowest concentrations at which no growth occurred after 72 hours at 30° C. These values were interpreted as the minimum inhibitory concentration (MIC).

Candida albicans [12] = test: agar plate system (Table II); format: cell-based; conditions: antibiotic medium 22, 72 hours at 30° C., read-out: Minimum Inhibitory Concentration
Procedure: as §4

Escherichia coli [13] = test: agar plate system (Table II); format: cell-based; conditions: antibiotic medium 1, 72 hours at 30° C., read-out: Minimum Inhibitory Concentration
Procedure: as §4

Pseudomonas aeruginosa [14] = test: agar plate system (Table II); format: cell-based; conditions: antibiotic medium 1, 72 hours at 30° C., read-out: Minimum Inhibitory Concentration
Procedure: as §4

Staphylococcus aureus [15] = test: agar plate system (Table II); format: cell-based; conditions: antibiotic medium 1, 72 hours at 30° C., read-out: Minimum Inhibitory Concentration
Procedure: as §4

Streptococcus faecalis [16] = test: agar plate system (Table II); format: cell-based; conditions: Enterococcus faecalis, antibiotic medium 1, 72 hours at 30° C., read-out: Minimum Inhibitory Concentration
Procedure: as §4

Aspergillus fumigatus = test: In Vitro Antifungal Activity, agar plates (Table III); format: cell-based; conditions: 72 h, three days at 25° C., pH 5.7, read-out: Minimum Inhibitory Concentration
Procedure: (§5) Compounds A, B, and C were tested further to determine antifungal activity. The compounds were added to melted and cooled (50° C.) agar to obtain concentrations of 100, 50, 25, 12.5, 6.25 and 0.0 mcg per ml of agar. After the agar solidified, sterile cotton swabs were dipped in stock suspensions of the organisms (10^6 organisms per ml of physiological saline) and then streaked across the agar. After three days' incubation at 25° C., concentrations which prevented growth were recorded as the minimal inhibitory concentration. The composition of the medium used in this study was as follows:
(§6) Calcium carbonate -- 0.5 g
(§7) V-8 juice filtrate -- 200.0 ml
as §2
(§8) The pH was adjusted to 5.7.

Aspergillus terreus = test: as above; format: cell-based; conditions: 72 h, three days at 25° C., pH 5.7, read-out: Minimum Inhibitory Concentration
Procedure: as §5, §6, §7, §2, §8

Botrytis cinerea = test: as above; format: cell-based; conditions: 72 h, three days at 25° C., pH 5.7, read-out: Minimum Inhibitory Concentration
Procedure: as §5, §6, §7, §2, §8

Chaetomium globosum = test: as above; format: cell-based; conditions: 72 h, three days at 25° C., pH 5.7, read-out: Minimum Inhibitory Concentration
Procedure: as §5, §6, §7, §2, §8

Colletotrichum phomoides = test: as above; format: cell-based; conditions: 72 h, three days at 25° C., pH 5.7, read-out: Minimum Inhibitory Concentration
Procedure: as §5, §6, §7, §2, §8

[17] = tested on: Fusarium oxysporum cubense; test: as above; format: cell-based; conditions: 72 h, three days at 25° C., pH 5.7, read-out: Minimum Inhibitory Concentration
Procedure: as §5, §6, §7, §2, §8

Microsporum gypseum = test: as above; format: cell-based; conditions: Nannizzia gypsea, 72 h, three days at 25° C., pH 5.7, read-out: Minimum Inhibitory Concentration
Procedure: as §5, §6, §7, §2, §8

Penicillium notatum = test: as above; format: cell-based; conditions: Penicillium chrysogenum, 72 h, three days at 25° C., pH 5.7, read-out: Minimum Inhibitory Concentration
Procedure: as §5, §6, §7, §2, §8

Rhodotorula glutinis = test: as above; format: cell-based; conditions: 72 h, three days at 25° C., pH 5.7, read-out: Minimum Inhibitory Concentration
Procedure: as §5, §6, §7, §2, §8

[18] = tested on: Saccharomyces pastorianus; test: as above; format: cell-based; conditions: 72 h, three days at 25° C., pH 5.7, read-out: Minimum Inhibitory Concentration
Procedure: as §5, §6, §7, §2, §8

[19] = chemical stability towards pH / alkali; format: physicochemical; conditions: pH 5-9
[20] = solubility in water and mineral oil; format: physicochemical; conditions: compared with other species of the invention
microorganisms = test: antimicrobial tests on isomeric mixtures; format: cell-based; conditions: one high in the cis- form, the other high in the trans- form
Procedure: The novel compounds of this embodiment of the present invention, exemplified in Examples 1, 2, 3, and 4 can exist as cis- and trans-isomers. The procedure outlined in Example 1 produces a ratio of isomers of about 9:1. It is the intent of this invention to include both geometric isomers as chemical entities as well as the isomeric mixture. […] Consequently, the utility tests described hereinafter were conducted employing the isomeric mixture (about 9:1) prepared as detailed in Example 1.

human skin = conditions: in vivo
Excerpt: The following protocol was followed in testing each compound.
Two-hundred subjects were employed in each investigation. The repeated insult technique was used in the patch test. A different group of subjects were utilized for each evaluation.
The technique used for the patch test called for a series of 9 induction patches of each test material to be placed on each of the subjects. The series was followed two weeks later by a single "challenge" patch of each test material to detect skin sensitization.
The series of nine induction patches was applied on Monday, Wednesday and Thursday and allowed to contact the skin for 24 hours, after which time they were removed and the skin sites graded for irritation. Thursday's patches were placed immediately after removal and grading of Wednesday's applications. After the ninth induction patches had been placed, a non-patching period of 2 weeks elapsed before the challenge patches were applied to detect sensitization reactions. For this 24-hour patch, a new skin site was used. This site was invariably chosen adjacent to an induction site; i.e., one where repeated applications had been made during the series of nine induction patches. The challenge applications were graded at 24 and 72 hours after application.
The skin applications for each material were made using oval-shaped adhesive patches (1" × 11/4") with circular gauze centers. The gauze centers were coated with approximately 0.03 ml. of the respective test material just prior to application.
The scoring criteria used for skin irritation reactions and in evaluating the sensitization evidenced on the challenge application follows:
Four separate formulations of each compound were tested along with two formulations of parabens.
A reading of 5 or more on the 8-point scale was deemed to be indicative of the development of skin sensitization to the test compound.

[21] = prior art; cited from earlier work

Row | Compound | MIC (Aspergillus niger [1]) [µg/mL] | MIC (Candida albicans [2]) [µg/mL] | MIC (Escherichia coli [3]) [µg/mL] | MIC (Pseudomonas aeruginosa [4]) [µg/mL] | MIC (Staphylococcus aureus [5]) [µg/mL] | MIC (Streptococcus faecalis [6]) [µg/mL] | MIC (Propionibacterium acnes) [µg/mL] | MIC (Escherichia coli [7]) [µg/mL] | MIC (Pseudomonas aeruginosa [8]) [µg/mL] | MIC (Staphylococcus aureus [9]) [µg/mL] | MIC (Streptococcus faecalis [10]) [µg/mL] | MIC (Aspergillus niger [11]) [µg/mL] | MIC (Candida albicans [12]) [µg/mL] | MIC (Escherichia coli [13]) [µg/mL] | MIC (Pseudomonas aeruginosa [14]) [µg/mL] | MIC (Staphylococcus aureus [15]) [µg/mL] | MIC (Streptococcus faecalis [16]) [µg/mL] | MIC (Aspergillus fumigatus) [µg/mL] | MIC (Aspergillus terreus) [µg/mL] | MIC (Botrytis cinerea) [µg/mL] | further results
1 | CC1(C)OCC(Br)([N+](=O)[O-])CO1 [Compound G, 5-bromo-2,2-dimethyl-5-nitro-1,3-dioxane] | 50 (≈ 208 µM) | 25 (≈ 104 µM) | 25 (≈ 104 µM) | 50 (≈ 208 µM) | 25 (≈ 104 µM) | 25 (≈ 104 µM) | – | – | – | – | – | – | – | – | – | – | – | – | – | – | –
2 | CC1OCC(Br)([N+](=O)[O-])CO1 (centres unmarked) [Compound C, 5-bromo-2-methyl-5-nitro-1,3-dioxane] | 12.5 (≈ 55.3 µM) | 6.25 (≈ 27.7 µM) | 12.5 (≈ 55.3 µM) | 25 (≈ 111 µM) | 12.5 (≈ 55.3 µM) | 12.5 (≈ 55.3 µM) | 6.25 (≈ 27.7 µM) | 25 (≈ 111 µM) | 25 (≈ 111 µM) | 25 (≈ 111 µM) | 25 (≈ 111 µM) | 12.5 (≈ 55.3 µM) | 6.25 (≈ 27.7 µM) | 12.5 (≈ 55.3 µM) | 25 (≈ 111 µM) | 12.5 (≈ 55.3 µM) | 12.5 (≈ 55.3 µM) | < 6.25 | 12.5 (≈ 55.3 µM) | 12.5 (≈ 55.3 µM) | MIC (Chaetomium globosum): < 6.25 µg/mL; MIC (Colletotrichum phomoides): 100 µg/mL (≈ 442 µM); MIC [17]: 12.5 µg/mL (≈ 55.3 µM); MIC (Microsporum gypseum): 100 µg/mL (≈ 442 µM); MIC (Penicillium notatum): 25 µg/mL (≈ 111 µM); MIC (Rhodotorula glutinis): 100 µg/mL (≈ 442 µM); MIC [18]: > 100 µg/mL; chemical stability at pH [19]: chemically stable at pH's from 5.0 to 9.0; solubility in water and oil, qualitative [20]: superior solubility in water and oil; antimicrobial activity of isomeric mixtures (microorganisms): equal activity; subjects evaluated as being sensitive on the challenge test (human skin): none
3 | O=[N+]([O-])C(Br)(CO)CO [Compound A, 2-bromo-2-nitropropane-1,3-diol] | – | – | – | – | – | – | 6.25 (≈ 31.3 µM) | 12.5 (≈ 62.5 µM) | 12.5 (≈ 62.5 µM) | 25 (≈ 125 µM) | 25 (≈ 125 µM) | > 50 | > 50 | 6.25 (≈ 31.3 µM) | 6.25 (≈ 31.3 µM) | 12.5 (≈ 62.5 µM) | 12.5 (≈ 62.5 µM) | < 6.25 | 25 (≈ 125 µM) | 25 (≈ 125 µM) | MIC (Chaetomium globosum): < 6.25 µg/mL; MIC (Colletotrichum phomoides): > 100 µg/mL; MIC [17]: 25 µg/mL (≈ 125 µM); MIC (Microsporum gypseum): 50 µg/mL (≈ 250 µM); MIC (Penicillium notatum): 100 µg/mL (≈ 500 µM); MIC (Rhodotorula glutinis): 100 µg/mL (≈ 500 µM); MIC [18]: > 100 µg/mL; chemical stability towards alkali [21]: chemically unstable towards alkali
